Reference: patent publication US20240390349A1, “DOSING REGIMEN OF CAPSID INHIBITOR” (priority 2023, published 2024)
Several values for one entry are separate records, joined by “and”; a condition that tells them apart may be missing. Equal entries are not always repeated. Entries after “also recorded” stand apart in the source; their conditions may differ. Where two headings read alike, the source gives them in different places.

Assays:
[1] = Safety during oral bridging period, CALIBRATE
Description: An AE could, therefore, be any unfavorable and/or unintended sign, symptom, or disease temporally associated with the use of a study drug, whether or not considered related to the study drug.
Preexisting events that increased in severity or changed in nature during or as a consequence of participation in the clinical study were also considered AEs.

[2] = human, in vivo, sc
[3] = system: HIV-1 capsid LEN resistance mutations; settings: for Fold decrease in LEN susceptibility: 1 participant
Excerpt: In HTE participants (Example 4), the resistance analysis population (RAP) during the oral bridging period included 9 participants (16%, 9/57) who met the criteria for resistance analysis, including 4 participants also present in the previous analysis. […];

[4] = Exposure-response analyses for efficacy and safety (PopPK-derived exposures); format: in vivo, human
Description: Exposure-response relationships for LEN were evaluated in HTE PWH with HIV-1 RNA<50 copies/mL at the oral bridging baseline in the Phase 2/3 study described in Example 4, using LEN exposure parameters (Ctrough, Cavg, and Cmax) derived from PopPK modeling.
Exposure-safety relationships for LEN were evaluated in the HTE PWH studies described in Example 4 (N=55), and in treatment-naive PWH in the study described in Example 5 (N=82) who received the oral bridging LEN regimen. Exposure-safety evaluations used LEN exposure metrics (Cavg, Ctrough, and Cmax) derived from PopPK analysis and the 5 most common treatment-emergent adverse events (TEAEs) were evaluated in relation to presence/absence in the LEN group across the entire oral bridging period in the two studies separately and combined (excluding infections and infestations AEs and injection site reactions).

[5] = system: HIV-1; test: Efficacy of oral bridging (HIV-1 RNA, CD4), CALIBRATE; format: in vivo, human
Excerpt: This Example describes results from a Phase 2 clinical study evaluating the safety and efficacy of LEN in combination with other antiretroviral (ARV) agents in ARV-naive people with HIV (PWH).
This Example describes a Phase 2, randomized, open-label, active-controlled, multicenter study. Participants in Treatment Groups 1 and 2 required oral bridging following a clinical hold imposed by the Food & Drug Administration on injectable LEN as the SC injection of LEN could not be administered within the protocol visit window. An Oral Bridging visit was completed every 10 to 12 weeks. Participants had to have met all of the inclusion criteria and none of the exclusion criteria to be included in the study.

[6] = clinical; settings: human, in vivo
Excerpt: The objective of this study was to evaluate the pharmacokinetics (PK) of LEN during oral bridging period (OBP) to assess the adequacy of 300-mg PO once-weekly (QW) regimen for maintaining therapeutic concentrations between missed SC LEN doses. During OBP, sparse PK samples were collected at the start of OBP and every ˜10-12 weeks (without regard to a prespecified time since dose) until SC LEN was resumed. LEN plasma concentrations were summarized during OBP in the CAPELLA (N=57) and CALIBRATE (N=82) studies.
Participants required oral weekly bridging if an SC injection of LEN could not be administered for any reason within the protocol visit window. If 26 to 28 weeks elapsed since the last SC injection, and if clinically appropriate to continue LEN, participants started oral LEN 300 mg (1 tablet) once a week at the oral bridging visit(s) and continued weekly dosing on the same day of the week. If more than 28 weeks elapsed since the last SC injection, and if clinically appropriate to continue LEN, participants restarted the oral lead-in at the oral bridging visits and continued oral weekly dosing on the same day of the week, until SC LEN was administered, as shown in Table 6.
Oral bridging day was calculated from first dose date of Oral Bridging.

[7] = po, Lower 90% CI of Concentration
[8] = po, Lower 90% CI of LEN concentration

SMILES: CC(C)(C#Cc1ccc(-c2ccc(Cl)c3c(NS(C)(=O)=O)nn(CC(F)(F)F)c23)c([C@H](Cc2cc(F)cc(F)c2)NC(=O)Cn2nc(C(F)(F)F)c3c2C(F)(F)[C@@H]2C[C@H]32)n1)S(C)(=O)=O [LEN, N—((S)-1-(3-(4-chloro-3-(methylsulfonamido)-1-(2,2,2-trifluoroethyl)-1H-indazol-7-yl)-6-(3-methyl-3-(methylsulfonyl)but-1-yn-1-yl)pyridin-2-yl)-2-(3,5-difluorophenyl)ethyl)-2-((3bS,4aR)-5,5-difluoro-3-(trifluoromethyl)-3b,4,4a,5-tetrahydro-1H-cyclopropa [3,4]cyclopenta [1,2-c]pyrazol-1-yl) acetamide]
- Changes from oral bridging baseline in blood pressure, pulse, respiration rate, body temperature [1]: no clinically relevant changes from oral bridging baseline
- Treatment-related diarrhea ([1]; 1 participant): 1.2%
- Grade 3 or higher blood creatine phosphokinase increased ([1]; 2 participants, both in oral LEN group): 1.7%
- Participants with Grade 3 events ([1]; LEN total group): 2.5%
- Participants with Grade 3 or higher AEs ([1]; LEN total group): 5.0%
- Participants with Grade 4 events ([1]; LEN total group): 2.5%
- TEAE COVID-19 ([1]; LEN total group): 5.8%
- TEAE influenza ([1]; LEN total group): 7.4%
- TEAE nasopharyngitis ([1]; LEN total group): 5.0%
- TEAE syphilis ([1]; LEN total group): 5.0%
- Participants with any AE ([1]; LEN total group (121)): 62.8%
- Participants with AEs related to study drug ([1]; LEN total group, all Grade 1): 3.3%
- Participants with serious AEs ([1]; LEN total group, not related to study drug): 2.5%
- AE oropharyngeal pain ([1]; SC LEN total group): 4.9%
- Participants with AEs related to study drug ([1]; SC LEN total group): 3.7%
- Participants with Grade 3 events ([1]; SC LEN total group): 1.2%
- Participants with Grade 3 or higher AEs ([1]; SC LEN total group): 3.7%
- Participants with Grade 4 events ([1]; SC LEN total group): 2.4%
- Participants with any AE ([1]; SC LEN total group): 64.6%
- Participants with serious AEs ([1]; SC LEN total group): 2.4%
- TEAE COVID-19 ([1]; SC LEN total group): 4.9%
- TEAE influenza ([1]; SC LEN total group): 8.5%
- TEAE nasopharyngitis ([1]; SC LEN total group): 4.9%
- TEAE syphilis ([1]; SC LEN total group): 4.9%
- Changes from oral bridging baseline in hematology or clinical chemistry ([1]; any treatment group): no clinically relevant changes from oral bridging baseline in median values for hematology or clinical chemistry parameters
- AE arthralgia ([1]; oral LEN group): 5.1%
- AE blood creatine phosphokinase increase ([1]; oral LEN group): 5.1%
- AE dyslipidemia ([1]; oral LEN group): 5.1%
- AE oropharyngeal gonococcal infection ([1]; oral LEN group): 5.1%
- Participants with AEs related to study drug ([1]; oral LEN group): 2.6%
- Participants with Grade 3 events ([1]; oral LEN group): 5.1%
- Participants with Grade 3 or higher AEs ([1]; oral LEN group): 7.7%
- Participants with Grade 4 events ([1]; oral LEN group): 2.6%
- Participants with any AE ([1]; oral LEN group): 59.0%
- Participants with serious AEs ([1]; oral LEN group): 2.6%
- TEAE COVID-19 ([1]; oral LEN group): 7.7%
- TEAE influenza ([1]; oral LEN group): 5.1%
- TEAE nasopharyngitis ([1]; oral LEN group): 5.1%
- TEAE syphilis ([1]; oral LEN group): 5.1%
- AEs leading to premature discontinuation of study drug or study ([1]; oral bridging period): no TEAEs which led to a premature discontinuation of study drug or from the study were reported; also recorded: no AEs that led to premature discontinuation of study drug or from the study were reported
- Deaths ([1]; oral bridging period): No deaths were reported
- Overall safety and tolerability of oral LEN ([1]; oral bridging period): generally safe and well tolerated
- Lower 90% CI of LEN predose concentration [2]: 56.2 ng/mL
- Mean LEN predose plasma concentration [2]: 74.4 ng/mL
- Fold decrease in LEN susceptibility ([3]; K70N+N74K): 289 fold
- Mean fold decrease in LEN susceptibility ([3]; Q67H or Q67Q/H, 3 participants): 5.6 fold
- Fold decrease in LEN susceptibility ([3]; Q67H+K70R+T107T/N): 393 fold
- Exposure-safety relationship (Cavg, Ctrough, Cmax vs common AEs) ([4]; Examples 4 (N=55) and 5 (N=82), separately and combined): lack of association between LEN exposure from oral bridging and the incidence of common AEs
- Exposure-efficacy relationship (post hoc Ctrough vs HIV-1 RNA <50 or ≥50 copies/mL) ([4]; HTE PWH (Example 4)): No trend in post hoc Ctrough was observed
- Participants with HIV-1 RNA<50 copies/mL at the time SC LEN was resumed ([4]; HTE PWH with HIV-1 RNA<50 at OB baseline (Example 4)): 39 of 40
- CD4 count and CD4% during oral bridging (in words) [5]: generally stable or slightly increasing
- Mean (SD) CD4 cell count at oral bridging baseline ([5]; LEN total group): 762 (285.2) /μL
- Mean CD4% at oral bridging baseline ([5]; LEN total group): 34%
- Proportion of participants with HIV-1 RNA<50 copies/mL ([5]; LEN total group, OB baseline): 99.2%
- Proportion of participants with HIV-1 RNA<50 copies/mL ([5]; Missing=Excluded, OB Week 10): 77/77 (100) %
- Proportion of participants with HIV-1 RNA<50 copies/mL ([5]; Missing=Excluded, OB Week 20): 58/58 (100) %
- Proportion of participants with HIV-1 RNA<50 copies/mL ([5]; Missing=Excluded, OB Week 30): 5/5 (100) %
- Proportion of participants with HIV-1 RNA<50 copies/mL ([5]; Missing=Excluded, all subsequent oral bridging time points, all treatment groups): 100%
- Proportion of participants with HIV-1 RNA<50 copies/mL ([5]; Missing=Failure, Week 10, LEN total): 97.5%
- Proportion of participants with HIV-1 RNA<50 copies/mL ([5]; Missing=Failure, Week 10, SC LEN total group): 97.5%
- Proportion of participants with HIV-1 RNA<50 copies/mL ([5]; Missing=Failure, Week 10, oral LEN group): 97.4%
- Proportion of participants with HIV-1 RNA<50 copies/mL ([5]; Missing=Failure, Week 20, LEN total): 100%
- Proportion of participants with HIV-1 RNA<50 copies/mL ([5]; Missing=Failure, Week 20, SC LEN total group): 100%
- Proportion of participants with HIV-1 RNA<50 copies/mL ([5]; Missing=Failure, Week 20, oral LEN group): 100%
- Mean CD4% at oral bridging baseline ([5]; SC LEN total group): 35%
- Proportion of participants with HIV-1 RNA<50 copies/mL ([5]; SC LEN total group (received OB), OB Baseline): 100% and 82/82 (100) %
- Mean change from oral bridging baseline in CD4% ([5]; Week 10, LEN total group): 1%
- Mean change from oral bridging baseline in CD4 cell count ([5]; Week 10, LEN total group): 35 µL⁻¹
- Mean change from oral bridging baseline in CD4% ([5]; Week 10, SC LEN total group): 0%
- Mean change from oral bridging baseline in CD4 cell count ([5]; Week 10, SC LEN total group): 26 µL⁻¹
- Mean change from oral bridging baseline in CD4% ([5]; Week 10, oral LEN group): 1%
- Mean change from oral bridging baseline in CD4 cell count ([5]; Week 10, oral LEN group): 55 µL⁻¹
- Mean change from oral bridging baseline in CD4% ([5]; Week 20, LEN total group): 0%
- Mean change from oral bridging baseline in CD4 cell count ([5]; Week 20, LEN total group): 0 µL⁻¹
- Mean change from oral bridging baseline in CD4% ([5]; Week 20, SC LEN total group): 0%
- Mean change from oral bridging baseline in CD4 cell count ([5]; Week 20, SC LEN total group): -31 µL⁻¹
- Mean change from oral bridging baseline in CD4% ([5]; Week 20, oral LEN group): 1%
- Mean change from oral bridging baseline in CD4 cell count ([5]; Week 20, oral LEN group): 106 µL⁻¹
- Mean CD4% at oral bridging baseline ([5]; oral LEN group): 33%
- Proportion of participants with HIV-1 RNA<50 copies/mL ([5]; oral LEN group, OB baseline): 97.4%
- Virologic suppression / virologic failure during oral bridging (in words) ([5]; treatment-naive participants): remained virologically suppressed; also recorded: No treatment-naive participants from the study described in Example 4 experienced virologic failure
- Mean LEN concentration and lower bound 90% CI versus efficacy target IQ4 [6]: > 15.5 ng/mL
- 90% CI of mean LEN concentration ([6]; 10 week): 66.1, 86.3
- 90% CI of mean LEN concentration ([6]; 20 week): 50.4, 99.3
- 90% CI of mean LEN concentration ([6]; 30 week): 29.9, 53.5
- 90% CI of mean LEN concentration ([6]; 1 day): 40.3, 51.9
- concentration at 10 day ([6]; po, Concentration, Mean (% CV)): 76.2 ng/mL
- concentration at 20 day ([6]; po, Concentration, Mean (% CV)): 74.8 ng/mL
- concentration at 10 day [6, 7]: 66.1 ng/mL
- concentration at 20 day [6, 7]: 50.4 ng/mL
- concentration at 30 day [6, 7]: 29.9 ng/mL
- concentration at 10 week [6, 8]: 66.1 ng/mL
- concentration at 20 week [6, 8]: 50.4 ng/mL
- concentration at 30 week [6, 8]: 29.9 ng/mL
- concentration at 1 day [6, 8]: 40.3 ng/mL
